Source: patent publication US20180110824A1, “Macrocyclic Modulators of the Ghrelin Receptor” (Ocera Therapeutics, Inc., priority 2016, published 2018)
Read-outs that look alike come from different tables or passages of the source.

Key:
[1] = test system: pulsatile GH release in rat; assay: Growth hormone response to test compounds in conscious, freely-moving rats; type: in vivo
Method: The following method is employed to determine the temporal pattern and magnitude of the growth hormone (GH) response to test compounds, administered either systemically or centrally. […] Further results are presented in the Examples below.
Adult male Sprague Dawley rats (225-300 g) were purchased from Charles River Canada (St. Constant, Canada) and individually housed on a 12-h light, 12-h dark cycle (lights on, time: 0600-1800) in a temperature (22±1° C.) and humidity-controlled room. Purina rat chow (Ralston Purina Co., St Louis, Mo.) and tap water were freely available. For these studies, chronic intracerebroventricular (icv) and intracardiac venous cannulas were implanted under sodium pentobarbital (50 mg/kg, ip) anesthesia using known techniques. The placement of the icv cannula was verified by both a positive drinking response to icv carbachol (100 ng/10 μl) injection on the day after surgery and methylene blue dye at the time of sacrifice. After surgery, the rats were placed directly in isolation test chambers with food and water freely available until body weight returned to preoperative levels (usually within 5-7 d). During this time, the rats were handled daily to minimize any stress associated with handling on the day of the experiment. On the test day, food was removed 1.5 h before the start of sampling and was returned at the end. Free moving rats were iv injected with either test sample at various levels (3, 30, 300, 1000 μg/kg) or normal saline at two different time points during a 6-h sampling period. The times 1100 and 1300 were chosen because they reflect typical peak and trough periods of GH secretion, as previously documented. The human ghrelin peptide, (5 μg, Phoenix Pharmaceuticals, Inc., Belmont, Calif.) was used as a positive control in the experiments and was diluted in normal saline just before use. To assess the central actions of test compounds on pulsatile GH release, a 10-fold lower dose of the test sample or normal saline, was administered icv at the same time points, 1100 and 1300. Blood samples (0.35 mL) were withdrawn every 15 min over the 6-h sampling period (time: 1000-1600) from all animals. To document the rapidity of the GH response to the test compound, an additional blood sample was obtained 5 min after each injection. […]
Plasma GH concentrations were measured in duplicate by double antibody RIA using materials supplied by the NIDDK Hormone Distribution Program (Bethesda, Md.), The averaged plasma GH values for 5-6 rats per group are reported in terms of the rat GH reference preparation. […]
• 1. […] Blood samples are drawn at defined, 15-minute intervals throughout the test day and growth hormone (GH) measured directly by radioimmunoassay. • 6. […]

[2] = target: T1, human growth hormone secretagogue receptor (hGHS-R1a) (Homo sapiens, UniProt Q92847); assay: Competitive radioligand binding assay (ghrelin receptor), [125I]-ghrelin displacement on GHS-R/HEK 293 membranes; conditions: for Ki: read-out: Ki
T1 construct: purchased PerkinElmer BioSignal #RBHGHSM; host or cells: HEK-293, stably transfected
T1 sequence (Q92847 whole entry): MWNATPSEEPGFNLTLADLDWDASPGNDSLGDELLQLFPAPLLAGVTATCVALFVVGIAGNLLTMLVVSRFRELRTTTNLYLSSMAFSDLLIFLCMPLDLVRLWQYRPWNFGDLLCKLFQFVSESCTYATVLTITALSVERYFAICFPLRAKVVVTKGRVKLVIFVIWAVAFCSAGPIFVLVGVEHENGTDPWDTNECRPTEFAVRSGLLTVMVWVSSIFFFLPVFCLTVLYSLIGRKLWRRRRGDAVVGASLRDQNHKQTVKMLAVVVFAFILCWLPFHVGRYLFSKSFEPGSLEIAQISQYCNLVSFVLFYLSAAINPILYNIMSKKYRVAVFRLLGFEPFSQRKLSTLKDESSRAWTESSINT

Question: Which IGF-1 levels ([1]; 1000 μg/kg dose) does the source give for `CC1C(=O)NC(Cc2ccc(F)cc2)C(=O)NCCCc2ccccc2O[C@H](C)CNC(C2CC2)C(=O)N1C` (stereo partly shown) [compound 298] here?
Answer: No changes in IGF-1 levels

Question: What about the “effect on GH release” value ([1]; FIG. 9) of the same molecule?
Answer: lack of effect on GH release

Question: And the “effect on ghrelin-induced GH release” value ([1]; dosed 10 min. prior to ghrelin, FIG. 12B)?
Answer: neither inhibits nor augments ghrelin-induced GH release

Question: And the “pulsatile GH release in comparison to vehicle controls” value ([1]; doses up to 1000 μg/kg i.v.)?
Answer: no significant difference in pulsatile GH release

Question: And the Ki ([2]; Table 3B, binding activity at the human ghrelin receptor)?
Answer: 10 to 100 nM

Question: And the Ki ([2]; Table 4, TFA salts unless otherwise noted)?
Answer: 10 to 100 nM

Question: What about the “binding to hGHS-R1a” value ([2]; representative binding inhibition curve, FIG. 10) of the same molecule?
Answer: binds competitively, reversibly, and with high affinity
